Assay results reported in the kinase profiling compilation of Christmann-Franck et al. (2016).

Experiments:
Test in all cases: radiometric filter-binding kinase assay, Kinase HotSpot
Conditions in all cases: compound 0.5 µM; ATP 10 µM
MET (human) = MET (human) (UniProt P08581)
BTK (human) = BTK (human) (UniProt Q06187)
NTRK1 (human) = NTRK1 (human) (UniProt P04629)
TXK (human) = TXK (human) (UniProt P42681)
AKT3 (human) = AKT3 (human) (UniProt Q9Y243)
ITK (human) = ITK (human) (UniProt Q08881)
DAPK3 (human) = DAPK3 (human) (UniProt O43293)
HIPK3 (human) = HIPK3 (human) (UniProt Q9H422)
Chain of HIPK3 (human) (Q9H422 whole entry, looked up): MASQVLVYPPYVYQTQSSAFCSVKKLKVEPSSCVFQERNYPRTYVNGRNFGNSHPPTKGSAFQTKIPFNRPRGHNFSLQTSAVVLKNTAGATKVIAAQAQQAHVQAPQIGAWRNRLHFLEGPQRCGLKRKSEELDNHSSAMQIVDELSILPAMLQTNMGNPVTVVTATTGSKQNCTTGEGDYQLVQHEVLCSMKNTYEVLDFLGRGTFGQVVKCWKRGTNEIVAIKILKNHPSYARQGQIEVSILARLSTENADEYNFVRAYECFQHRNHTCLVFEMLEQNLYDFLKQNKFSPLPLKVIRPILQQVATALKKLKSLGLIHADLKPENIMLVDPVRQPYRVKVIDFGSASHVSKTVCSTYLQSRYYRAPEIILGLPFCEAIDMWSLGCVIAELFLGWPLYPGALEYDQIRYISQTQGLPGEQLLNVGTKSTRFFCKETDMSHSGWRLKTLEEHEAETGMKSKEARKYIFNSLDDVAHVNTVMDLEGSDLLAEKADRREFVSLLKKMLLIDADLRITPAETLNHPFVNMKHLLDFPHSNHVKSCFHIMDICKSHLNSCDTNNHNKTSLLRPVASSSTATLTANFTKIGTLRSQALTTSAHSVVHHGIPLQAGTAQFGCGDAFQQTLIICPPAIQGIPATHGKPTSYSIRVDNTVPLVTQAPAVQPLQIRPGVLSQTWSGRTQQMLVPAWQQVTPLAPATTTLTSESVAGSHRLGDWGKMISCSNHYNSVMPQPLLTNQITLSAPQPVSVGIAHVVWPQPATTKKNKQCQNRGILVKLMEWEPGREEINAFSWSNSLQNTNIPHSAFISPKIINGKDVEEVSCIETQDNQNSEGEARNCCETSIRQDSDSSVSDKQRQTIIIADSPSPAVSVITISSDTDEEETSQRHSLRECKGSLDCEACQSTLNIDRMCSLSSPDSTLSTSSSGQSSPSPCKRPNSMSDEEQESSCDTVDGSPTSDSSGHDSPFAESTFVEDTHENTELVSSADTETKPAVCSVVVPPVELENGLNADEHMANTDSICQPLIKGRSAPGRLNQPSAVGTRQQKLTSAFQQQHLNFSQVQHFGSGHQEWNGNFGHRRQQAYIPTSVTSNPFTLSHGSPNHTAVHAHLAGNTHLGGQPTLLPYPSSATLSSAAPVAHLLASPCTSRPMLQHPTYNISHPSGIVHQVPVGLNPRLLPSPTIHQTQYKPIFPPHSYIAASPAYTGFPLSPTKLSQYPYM

YES1 (human) = YES1 (human) (UniProt P07947)
EPHA5 (human) = EPHA5 (human) (UniProt P54756)
RPS6KA4 KD2 (human) = RPS6KA4 KD2 (human) (UniProt O75676)
PAK3 (human) = PAK3 (human) (UniProt O75914)
PRKD3 (human) = PRKD3 (human) (UniProt O94806)
TNK2 (human) = TNK2 (human) (UniProt Q07912)
FGFR3 (human) = FGFR3 (human) (UniProt P22607)
CDC42BPA (human) = CDC42BPA (human) (UniProt Q5VT25)
DYRK1B (human) = DYRK1B (human) (UniProt Q9Y463)
MAP4K4 (human) = MAP4K4 (human) (UniProt O95819)
PIM1 (human) = PIM1 (human) (UniProt P11309)
Chain of PIM1 (human) (P11309 whole entry, looked up): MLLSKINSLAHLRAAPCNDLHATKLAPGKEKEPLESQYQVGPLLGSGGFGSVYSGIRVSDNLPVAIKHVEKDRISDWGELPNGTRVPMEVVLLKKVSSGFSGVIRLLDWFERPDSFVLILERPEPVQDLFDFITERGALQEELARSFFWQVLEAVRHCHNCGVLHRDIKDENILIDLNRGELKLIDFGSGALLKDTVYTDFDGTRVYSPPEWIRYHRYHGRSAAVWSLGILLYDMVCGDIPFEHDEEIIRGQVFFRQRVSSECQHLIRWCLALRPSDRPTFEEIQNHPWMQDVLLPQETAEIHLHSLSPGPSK

STK25 (human) = STK25 (human) (UniProt O00506)
MAP3K14 (human) = MAP3K14 (human) (UniProt Q99558)
RPS6KA3 KD1 KD2 (human) = RPS6KA3 KD1 KD2 (human) (UniProt P51812)
CSNK1G1 (human) = CSNK1G1 (human) (UniProt Q9HCP0)
MAPK11 (human) = MAPK11 (human) (UniProt Q15759)
MAPK10 (human) = MAPK10 (human) (UniProt P53779)
MAP3K5 (human) = MAP3K5 (human) (UniProt Q99683)
DSTYK (human) = DSTYK (human) (UniProt Q6XUX3)
CAMKK1 (human) = CAMKK1 (human) (UniProt Q8N5S9)
PRKCD (human) = PRKCD (human) (UniProt Q05655)
ADRBK2 (human) = ADRBK2 (human) (UniProt P35626)
ACVR1B (human) = ACVR1B (human) (UniProt P36896)
Chain of ACVR1B (human) (P36896 whole entry, looked up): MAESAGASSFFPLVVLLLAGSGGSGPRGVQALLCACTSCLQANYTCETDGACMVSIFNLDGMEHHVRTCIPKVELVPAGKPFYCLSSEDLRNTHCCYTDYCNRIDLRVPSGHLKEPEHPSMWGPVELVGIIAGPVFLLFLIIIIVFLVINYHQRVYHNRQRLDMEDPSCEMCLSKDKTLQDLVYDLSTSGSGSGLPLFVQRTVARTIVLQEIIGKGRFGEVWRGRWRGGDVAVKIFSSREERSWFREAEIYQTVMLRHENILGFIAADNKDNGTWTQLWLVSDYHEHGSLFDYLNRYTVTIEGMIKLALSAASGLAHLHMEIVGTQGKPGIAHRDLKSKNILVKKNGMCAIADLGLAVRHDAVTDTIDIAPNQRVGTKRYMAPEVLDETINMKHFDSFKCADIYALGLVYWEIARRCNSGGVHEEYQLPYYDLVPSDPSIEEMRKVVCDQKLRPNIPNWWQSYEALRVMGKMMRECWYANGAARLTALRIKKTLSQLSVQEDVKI

CDK1 CCNB1 (human) = CDK1 CCNB1 (human) (UniProt P06493+P14635)
PTK2B (human) = PTK2B (human) (UniProt Q14289)
CAMK2G (human) = CAMK2G (human) (UniProt Q13555)
PRKCB1 (human) = PRKCB1 (human) (UniProt P05771)
CHEK2 (human) = CHEK2 (human) (UniProt O96017)
MAP3K2 (human) = MAP3K2 (human) (UniProt Q9Y2U5)
Chain of MAP3K2 (human) (Q9Y2U5 whole entry, looked up): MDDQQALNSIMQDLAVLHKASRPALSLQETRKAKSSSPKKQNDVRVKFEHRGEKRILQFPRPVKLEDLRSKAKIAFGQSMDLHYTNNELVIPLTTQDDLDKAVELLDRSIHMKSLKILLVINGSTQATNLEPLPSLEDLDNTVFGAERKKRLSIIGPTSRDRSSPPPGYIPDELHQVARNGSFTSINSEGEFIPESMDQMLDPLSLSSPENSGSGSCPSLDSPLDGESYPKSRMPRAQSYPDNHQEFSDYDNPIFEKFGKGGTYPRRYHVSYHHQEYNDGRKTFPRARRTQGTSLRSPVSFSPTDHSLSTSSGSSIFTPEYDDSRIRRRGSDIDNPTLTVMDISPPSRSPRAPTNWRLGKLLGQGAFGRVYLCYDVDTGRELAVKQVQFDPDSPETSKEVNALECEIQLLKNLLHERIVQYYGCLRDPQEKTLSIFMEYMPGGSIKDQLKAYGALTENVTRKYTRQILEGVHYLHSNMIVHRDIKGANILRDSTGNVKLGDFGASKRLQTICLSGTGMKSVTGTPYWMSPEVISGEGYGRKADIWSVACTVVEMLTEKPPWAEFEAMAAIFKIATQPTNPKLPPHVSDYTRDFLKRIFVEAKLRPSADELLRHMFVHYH

MAP3K7 TAB1 (human) = MAP3K7 TAB1 (human) (UniProt O43318+Q15750)
Chain of MAP3K7 TAB1 (human) (O43318 whole entry, looked up): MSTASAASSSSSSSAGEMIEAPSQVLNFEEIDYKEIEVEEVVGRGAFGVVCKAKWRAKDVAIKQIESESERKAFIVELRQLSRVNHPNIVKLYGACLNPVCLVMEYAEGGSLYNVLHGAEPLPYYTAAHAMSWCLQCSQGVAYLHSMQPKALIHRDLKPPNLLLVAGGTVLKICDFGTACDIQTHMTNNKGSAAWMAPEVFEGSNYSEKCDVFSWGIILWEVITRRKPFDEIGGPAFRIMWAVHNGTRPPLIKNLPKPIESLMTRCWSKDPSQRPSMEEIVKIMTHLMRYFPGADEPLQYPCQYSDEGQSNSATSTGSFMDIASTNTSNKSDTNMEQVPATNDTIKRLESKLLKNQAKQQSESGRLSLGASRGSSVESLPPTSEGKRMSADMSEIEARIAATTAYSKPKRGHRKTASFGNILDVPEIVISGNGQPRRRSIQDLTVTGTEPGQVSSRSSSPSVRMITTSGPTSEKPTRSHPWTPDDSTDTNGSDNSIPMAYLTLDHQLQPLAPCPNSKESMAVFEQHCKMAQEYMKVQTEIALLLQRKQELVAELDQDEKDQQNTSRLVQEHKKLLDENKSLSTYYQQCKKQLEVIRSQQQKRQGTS
Chain of MAP3K7 TAB1 (human) (Q15750 whole entry, looked up): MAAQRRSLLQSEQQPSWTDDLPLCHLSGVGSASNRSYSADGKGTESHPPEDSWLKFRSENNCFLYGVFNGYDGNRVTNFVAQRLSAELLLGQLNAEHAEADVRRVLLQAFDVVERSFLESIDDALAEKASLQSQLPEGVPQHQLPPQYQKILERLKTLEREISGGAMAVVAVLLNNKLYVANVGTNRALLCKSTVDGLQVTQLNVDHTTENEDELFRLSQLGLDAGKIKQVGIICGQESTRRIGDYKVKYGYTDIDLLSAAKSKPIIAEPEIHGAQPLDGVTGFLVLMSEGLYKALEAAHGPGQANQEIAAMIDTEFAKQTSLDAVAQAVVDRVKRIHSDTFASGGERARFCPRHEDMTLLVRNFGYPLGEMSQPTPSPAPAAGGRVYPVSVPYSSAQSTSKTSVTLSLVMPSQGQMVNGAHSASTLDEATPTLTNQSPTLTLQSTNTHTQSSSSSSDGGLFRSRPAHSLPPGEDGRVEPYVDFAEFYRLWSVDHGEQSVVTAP

EPHA2 (human) = EPHA2 (human) (UniProt P29317)
VRK1 (human) = VRK1 (human) (UniProt Q99986)
Chain of VRK1 (human) (Q99986 whole entry, looked up): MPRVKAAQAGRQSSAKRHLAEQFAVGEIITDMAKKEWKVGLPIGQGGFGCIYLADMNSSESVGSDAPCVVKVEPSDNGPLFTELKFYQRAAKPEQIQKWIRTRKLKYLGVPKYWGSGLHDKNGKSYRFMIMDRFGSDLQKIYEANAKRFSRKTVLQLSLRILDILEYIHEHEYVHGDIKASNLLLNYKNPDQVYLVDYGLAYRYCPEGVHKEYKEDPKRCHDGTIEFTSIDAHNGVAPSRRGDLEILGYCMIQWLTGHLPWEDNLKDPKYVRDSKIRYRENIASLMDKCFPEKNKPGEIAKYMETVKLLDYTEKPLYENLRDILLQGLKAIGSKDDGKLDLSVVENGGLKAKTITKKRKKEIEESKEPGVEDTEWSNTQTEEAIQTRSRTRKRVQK

RPS6KB1 (human) = RPS6KB1 (human) (UniProt P23443)
PIM2 (human) = PIM2 (human) (UniProt Q9P1W9)

Chain of NTRK1 (human) (P04629 whole entry, looked up): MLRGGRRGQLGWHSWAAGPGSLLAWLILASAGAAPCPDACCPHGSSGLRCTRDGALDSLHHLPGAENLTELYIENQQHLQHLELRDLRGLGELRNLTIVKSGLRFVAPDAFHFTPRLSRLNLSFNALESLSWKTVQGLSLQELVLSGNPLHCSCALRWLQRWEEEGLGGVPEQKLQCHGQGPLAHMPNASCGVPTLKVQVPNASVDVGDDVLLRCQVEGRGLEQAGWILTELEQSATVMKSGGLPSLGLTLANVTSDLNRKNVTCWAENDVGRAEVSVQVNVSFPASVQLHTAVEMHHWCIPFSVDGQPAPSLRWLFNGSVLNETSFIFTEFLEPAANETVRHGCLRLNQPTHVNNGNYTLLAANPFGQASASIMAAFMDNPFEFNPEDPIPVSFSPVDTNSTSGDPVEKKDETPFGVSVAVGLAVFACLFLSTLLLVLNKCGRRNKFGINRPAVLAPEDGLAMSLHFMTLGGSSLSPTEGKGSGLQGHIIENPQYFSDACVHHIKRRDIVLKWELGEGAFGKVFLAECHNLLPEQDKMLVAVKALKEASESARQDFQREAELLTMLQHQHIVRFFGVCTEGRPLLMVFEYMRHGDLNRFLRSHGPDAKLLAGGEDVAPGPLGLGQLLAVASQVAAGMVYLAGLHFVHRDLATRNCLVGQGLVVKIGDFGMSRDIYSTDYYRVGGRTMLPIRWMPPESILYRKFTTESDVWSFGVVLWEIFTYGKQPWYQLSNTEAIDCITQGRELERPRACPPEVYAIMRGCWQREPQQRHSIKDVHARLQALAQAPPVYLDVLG

Work on `Nc1n[nH]c2nnc(-c3c(-c4ccccc4)nn4ccccc34)cc12` yielded a residual activity (MET (human)) of 95%, a residual activity (BTK (human)) of 93.6% and a residual activity (NTRK1 (human)) of 101%. The residual activity (TXK (human)) was 88.8%, the residual activity (AKT3 (human)) was 97.5% and the residual activity (ITK (human)) was 90.8%. The residual activity (DAPK3 (human)) was 102%, the residual activity (HIPK3 (human)) was 95.3% and the residual activity (YES1 (human)) was 91.1%. It also gave a residual activity (EPHA5 (human)) of 101%, a residual activity (RPS6KA4 KD2 (human)) of 94.7% and a residual activity (PAK3 (human)) of 100%. The residual activity (PRKD3 (human)) was 58.9%, the residual activity (TNK2 (human)) was 82.7% and the residual activity (FGFR3 (human)) was 102%. For the same compound, the residual activity (CDC42BPA (human)) was 89.7%, the residual activity (DYRK1B (human)) was 101% and the residual activity (MAP4K4 (human)) was 62%. The residual activity (PIM1 (human)) was 100%, the residual activity (STK25 (human)) was 84.2% and the residual activity (MAP3K14 (human)) was 102%. It also gave a residual activity (RPS6KA3 KD1 KD2 (human)) of 98.7%, a residual activity (CSNK1G1 (human)) of 109% and a residual activity (MAPK11 (human)) of 90%. It also gave a residual activity (MAPK10 (human)) of 103%, a residual activity (MAP3K5 (human)) of 99.3% and a residual activity (DSTYK (human)) of 95.9%. It also gave a residual activity (CAMKK1 (human)) of 125%, a residual activity (PRKCD (human)) of 31.2% and a residual activity (ADRBK2 (human)) of 101%. The residual activity (ACVR1B (human)) was 107%, the residual activity (CDK1 CCNB1 (human)) was 90.2% and the residual activity (PTK2B (human)) was 95.4%. For the same compound, the residual activity (CAMK2G (human)) was 96.7%, the residual activity (PRKCB1 (human)) was 96.5% and the residual activity (CHEK2 (human)) was 97%. It also gave a residual activity (MAP3K2 (human)) of 97.8%, a residual activity (MAP3K7 TAB1 (human)) of 101% and a residual activity (EPHA2 (human)) of 98.3%. It also gave a residual activity (VRK1 (human)) of 92.2%, a residual activity (RPS6KB1 (human)) of 97.7% and a residual activity (PIM2 (human)) of 91.7%.
With `O=C(NC(NC(=S)Nc1ccc(F)c([N+](=O)[O-])c1)C(Cl)(Cl)Cl)C(c1ccccc1)c1ccccc1` (centres undefined) the residual activity (MET (human)) was 101%, the residual activity (BTK (human)) was 104% and the residual activity (NTRK1 (human)) was 107%. For the same compound, the residual activity (TXK (human)) was 108%, the residual activity (AKT3 (human)) was 106% and the residual activity (ITK (human)) was 94.9%. The residual activity (DAPK3 (human)) was 103%, the residual activity (HIPK3 (human)) was 105% and the residual activity (YES1 (human)) was 94.6%. For the same compound, the residual activity (EPHA5 (human)) was 107%, the residual activity (RPS6KA4 KD2 (human)) was 92.7% and the residual activity (PAK3 (human)) was 91.9%. For the same compound, the residual activity (PRKD3 (human)) was 98.5%, the residual activity (TNK2 (human)) was 98% and the residual activity (FGFR3 (human)) was 96.8%. For the same compound, the residual activity (CDC42BPA (human)) was 111%, the residual activity (DYRK1B (human)) was 103% and the residual activity (MAP4K4 (human)) was 92.7%. It also gave a residual activity (PIM1 (human)) of 101%, a residual activity (STK25 (human)) of 96.2% and a residual activity (MAP3K14 (human)) of 92.1%. It also gave a residual activity (RPS6KA3 KD1 KD2 (human)) of 96.2%, a residual activity (CSNK1G1 (human)) of 83.3% and a residual activity (MAPK11 (human)) of 104%. For the same compound, the residual activity (MAPK10 (human)) was 96.2%, the residual activity (MAP3K5 (human)) was 97.1% and the residual activity (DSTYK (human)) was 100%. The residual activity (CAMKK1 (human)) was 128%, the residual activity (PRKCD (human)) was 91.2% and the residual activity (ADRBK2 (human)) was 98.3%. For the same compound, the residual activity (ACVR1B (human)) was 106%, the residual activity (CDK1 CCNB1 (human)) was 92.1% and the residual activity (PTK2B (human)) was 102%. For the same compound, the residual activity (CAMK2G (human)) was 107%, the residual activity (PRKCB1 (human)) was 103% and the residual activity (CHEK2 (human)) was 97.6%. The residual activity (MAP3K2 (human)) was 96.8%, the residual activity (MAP3K7 TAB1 (human)) was 89.7% and the residual activity (EPHA2 (human)) was 103%. The residual activity (VRK1 (human)) was 96.7%, the residual activity (RPS6KB1 (human)) was 91.9% and the residual activity (PIM2 (human)) was 117%.
